Literature values in article PMC2694617 (Journal of medicinal chemistry, 2009).
Read-outs that look alike come from different tables or passages of the source.

Assays:
[1] = tested on: rat model of inflammatory pain; conditions: in vivo
human NTS1 [2] = biological target: T1, human NTS1 (Homo sapiens, UniProt P30989)
[3] = ref [6],[11],[18],[19]
human NTS1 [4] = biological target: T1, human NTS1; remark: listed apart in the source

T1 sequence (P30989 whole entry): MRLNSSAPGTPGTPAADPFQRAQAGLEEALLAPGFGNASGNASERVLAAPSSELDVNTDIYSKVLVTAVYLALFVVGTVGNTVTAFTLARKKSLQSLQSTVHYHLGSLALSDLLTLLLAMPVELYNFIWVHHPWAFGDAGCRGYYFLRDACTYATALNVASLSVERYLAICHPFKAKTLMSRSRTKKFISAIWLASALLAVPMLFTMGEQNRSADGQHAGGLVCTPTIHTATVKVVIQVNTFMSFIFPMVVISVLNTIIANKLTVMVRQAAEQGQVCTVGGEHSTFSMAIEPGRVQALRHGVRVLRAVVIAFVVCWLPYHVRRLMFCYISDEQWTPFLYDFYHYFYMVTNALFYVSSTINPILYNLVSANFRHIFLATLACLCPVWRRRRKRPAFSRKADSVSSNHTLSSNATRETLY

contulakin-G
potency [1]: picomolar potency

(N-methyl-Arg)-Lys-Pro-(L-neo-Trp)-(tert-Leu)-Leu (RKPWLL) [NT69L]
Kd (human NTS1 [2]; ref [11]): 1.55 nM

cyclo(KKPYILKKPYIL) [JMV2012] [listing 1 of 2 here]
analgesic activity (previously described, ref [12]): analgesic

(N-methyl-Arg)-Lys-Pro-(L-neo-Trp)-(tert-Leu)-Leu [NT69L]
analgesic activity (ref [6],[11],[18],[19]): potent analgesic | BBB penetration [3]: penetrates the BBB

NT: endogenous neuropeptide; full-length, unmodified NT
analgesic activity (mediated spinally and/or supraspinally by NT receptors, ref [5],[6]): potent analgesic activity

neurotensin (from UniProt P30990)
Ki (human NTS1 [4]): 0.5 nM

cyclo(KKPYILKKPYIL) [JMV2012] [listing 2 of 2 here]
Kd (human NTS1 [2]; ref [12]): 150 nM
